Experimental data: PubChem BioAssay AID1963845 (Molecular Pharmacology Branch, DTP, NCI, 2024)
pIC50: −log10 of the molar value.

Test system: 429239-143-T-J1-PDC complex spheroid viability
Test: Anticancer human tumor 429239-143-T-J1-PDC patient-derived small cell lung carcinoma cell line growth inhibition [POLQ]
Settings: for pIC50: curve of first compound; for viability, T/C: stronger effect = lower value
Outline: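 Three-cell-type spheroids modelling solid tumor plus stroma served as the readout system; POL inhibitors were tested individually and in combination, concentration ranges set by clinical Cmax where known.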

[1] = second compound 0.0316 µM, first compound 0.0316 µM
[2] = second compound 0.0316 µM, first compound 0.1 µM
[3] = second compound 0.0316 µM, first compound 0.316 µM
[4] = second compound 0.0316 µM, first compound 1 µM
[5] = second compound 0.0316 µM, first compound 3.16 µM
[6] = second compound 0.0316 µM, first compound 10 µM
[7] = second compound 0.1 µM, first compound 0.0316 µM
[8] = second compound 0.1 µM, first compound 0.1 µM
[9] = second compound 0.1 µM, first compound 0.316 µM
[10] = second compound 0.1 µM, first compound 1 µM
[11] = second compound 0.1 µM, first compound 3.16 µM
[12] = second compound 0.1 µM, first compound 10 µM
[13] = second compound 0.316 µM, first compound 0.0316 µM
[14] = second compound 0.316 µM, first compound 0.1 µM
[15] = second compound 0.316 µM, first compound 0.316 µM
[16] = second compound 0.316 µM, first compound 1 µM
[17] = second compound 0.316 µM, first compound 3.16 µM
[18] = second compound 0.316 µM, first compound 10 µM
[19] = second compound 1 µM, first compound 0.0316 µM
[20] = second compound 1 µM, first compound 0.1 µM
[21] = second compound 1 µM, first compound 0.316 µM
[22] = second compound 1 µM, first compound 1 µM
[23] = second compound 1 µM, first compound 3.16 µM
[24] = second compound 1 µM, first compound 10 µM
[25] = second compound 3.16 µM, first compound 0.0316 µM
[26] = second compound 3.16 µM, first compound 0.1 µM
[27] = second compound 3.16 µM, first compound 0.316 µM
[28] = second compound 3.16 µM, first compound 1 µM
[29] = second compound 3.16 µM, first compound 3.16 µM
[30] = second compound 3.16 µM, first compound 10 µM
[31] = second compound 10 µM, first compound 0.0316 µM
[32] = second compound 10 µM, first compound 0.1 µM
[33] = second compound 10 µM, first compound 0.316 µM
[34] = second compound 10 µM, first compound 1 µM
[35] = second compound 10 µM, first compound 3.16 µM
[36] = second compound 10 µM, first compound 10 µM
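Note: luminescence signal used as surrogate measure of viable cells; spheroids exposed to compounds for seven days before readout.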
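Throughout, for viability, T/C: 100% = DMSO vehicle control viability as luminescence relative to vehicle.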

CC1COCCN1c1cc(-c2ccnn2C)c2ccnc(-c3ccn[nH]3)c2n1 (stereo unspecified) + COC1C(OC(N)=O)C(O)C(Oc2ccc3c(O)c(NC(=O)c4ccc(O)c(CC=C(C)C)c4)c(=O)oc3c2C)OC1(C)C
pIC50 (second compound 0.0316 µM): 7.09
pIC50 (second compound 0.1 µM): 7.12
pIC50 (second compound 0.316 µM): 7.15
pIC50 (second compound 1 µM): 6.94
pIC50 (second compound 3.16 µM): 6.98
pIC50 (second compound 10 µM): 7.05
viability, T/C [1]: 85.1%
viability, T/C [2]: 40.2%
viability, T/C [3]: 27.5%
viability, T/C [4]: 12.9%
viability, T/C [5]: 10.1%
viability, T/C [6]: 8.09%
viability, T/C [7]: 71.9%
viability, T/C [8]: 42%
viability, T/C [9]: 28.8%
viability, T/C [10]: 13.6%
viability, T/C [11]: 8.87%
viability, T/C [12]: 10.7%
viability, T/C [13]: 75.5%
viability, T/C [14]: 35.2%
viability, T/C [15]: 28.5%
viability, T/C [16]: 13.1%
viability, T/C [17]: 10.9%
viability, T/C [18]: 9.18%
viability, T/C [19]: 79.2%
viability, T/C [20]: 53.4%
viability, T/C [21]: 27.6%
viability, T/C [22]: 15.6%
viability, T/C [23]: 10.5%
viability, T/C [24]: 10.6%
viability, T/C [25]: 83.8%
viability, T/C [26]: 50.1%
viability, T/C [27]: 29.3%
viability, T/C [28]: 14.2%
viability, T/C [29]: 10.6%
viability, T/C [30]: 9.32%
viability, T/C [31]: 72.7%
viability, T/C [32]: 46.7%
viability, T/C [33]: 28%
viability, T/C [34]: 13.1%
viability, T/C [35]: 9.4%
viability, T/C [36]: 9.29%

C=CC(=O)N1CCN(c2nc(=O)n(-c3c(C)ccnc3C(C)C)c3nc(-c4c(O)cccc4F)c(F)cc23)C(C)C1 (stereo unspecified) + COC1C(OC(N)=O)C(O)C(Oc2ccc3c(O)c(NC(=O)c4ccc(O)c(CC=C(C)C)c4)c(=O)oc3c2C)OC1(C)C
pIC50 (second compound 0.0316 µM): < 5.00
pIC50 (second compound 0.1 µM): < 5.00
pIC50 (second compound 0.316 µM): < 5.00
pIC50 (second compound 1 µM): < 5.00
pIC50 (second compound 3.16 µM): < 5.00
pIC50 (second compound 10 µM): < 5.00
viability, T/C [1]: 107%
viability, T/C [2]: 89.5%
viability, T/C [3]: 94%
viability, T/C [4]: 94.6%
viability, T/C [5]: 107%
viability, T/C [6]: 112%
viability, T/C [7]: 104%
viability, T/C [8]: 94.3%
viability, T/C [9]: 93.6%
viability, T/C [10]: 104%
viability, T/C [11]: 87.9%
viability, T/C [12]: 97.7%
viability, T/C [13]: 96.7%
viability, T/C [14]: 90.8%
viability, T/C [15]: 91.7%
viability, T/C [16]: 91.7%
viability, T/C [17]: 103%
viability, T/C [18]: 101%
viability, T/C [19]: 98.4%
viability, T/C [20]: 94.6%
viability, T/C [21]: 99.8%
viability, T/C [22]: 96.6%
viability, T/C [23]: 103%
viability, T/C [24]: 101%
viability, T/C [25]: 94.9%
viability, T/C [26]: 107%
viability, T/C [27]: 95.3%
viability, T/C [28]: 95.3%
viability, T/C [29]: 98.7%
viability, T/C [30]: 103%
viability, T/C [31]: 79.5%
viability, T/C [32]: 84.8%
viability, T/C [33]: 91.5%
viability, T/C [34]: 87.7%
viability, T/C [35]: 104%
viability, T/C [36]: 103%

CCc1cc2c(N3CCc4c(cc(Cn5ccnc5)cc4-c4cn(C)nc4C(F)(F)F)C3=O)cc(C)nc2c(OC)n1 + COC1C(OC(N)=O)C(O)C(Oc2ccc3c(O)c(NC(=O)c4ccc(O)c(CC=C(C)C)c4)c(=O)oc3c2C)OC1(C)C
pIC50 (second compound 0.0316 µM): 5.83
pIC50 (second compound 0.1 µM): 5.65
pIC50 (second compound 0.316 µM): 5.86
pIC50 (second compound 1 µM): 5.70
pIC50 (second compound 3.16 µM): 5.85
pIC50 (second compound 10 µM): 6.15
viability, T/C [1]: 85.5%
viability, T/C [2]: 85.1%
viability, T/C [3]: 70.6%
viability, T/C [4]: 50%
viability, T/C [5]: 46.1%
viability, T/C [6]: 29%
viability, T/C [7]: 94.5%
viability, T/C [8]: 88.7%
viability, T/C [9]: 70%
viability, T/C [10]: 64.3%
viability, T/C [11]: 43.4%
viability, T/C [12]: 33.4%
viability, T/C [13]: 95.2%
viability, T/C [14]: 95%
viability, T/C [15]: 65.1%
viability, T/C [16]: 57.8%
viability, T/C [17]: 41.5%
viability, T/C [18]: 40.4%
viability, T/C [19]: 90.2%
viability, T/C [20]: 76%
viability, T/C [21]: 65.8%
viability, T/C [22]: 69.1%
viability, T/C [23]: 37.8%
viability, T/C [24]: 30.5%
viability, T/C [25]: 83.8%
viability, T/C [26]: 83.3%
viability, T/C [27]: 81.7%
viability, T/C [28]: 52.6%
viability, T/C [29]: 44.2%
viability, T/C [30]: 31.1%
viability, T/C [31]: 88.2%
viability, T/C [32]: 82.8%
viability, T/C [33]: 61.6%
viability, T/C [34]: 44%
viability, T/C [35]: 46.3%
viability, T/C [36]: 34.1%
